What was measured:
[1] = target: Phosphatidylinositol 4,5-bisphosphate 3-kinase catalytic subunit delta isoform (Homo sapiens) (UniProt O00329); test: Inhibition of PI3K delta (unknown origin) at 0.1 uM by ADP-Glo assay relative to control
[2] = target: Tyrosine-protein kinase Lyn (Homo sapiens) (UniProt P07948); test: Inhibition of recombinant human full length GST-tagged Lyn-A expressed in insect cells at 1 uM by Z'-Lyte assay relative to control
[3] = target: Tyrosine-protein kinase BTK (Homo sapiens) (UniProt Q06187); test: Inhibition of recombinant full length human His-tagged BTK expressed in baculovirus expression system at 1 uM by TR-FRET assay relative to control
[4] = target: Mitogen-activated protein kinase kinase kinase 14 (Homo sapiens, UniProt Q99558); test: Inhibition of recombinant human GST-tagged NIK expressed in baculovirus expression system at 0.1 uM by Z'-Lyte assay relative to control
[5] = target: 3-phosphoinositide-dependent protein kinase 1 (Homo sapiens) (UniProt O15530); test: Inhibition of recombinant human full length His-tagged PDK1 expressed in baculovirus expression system at 0.1 uM by Z'-Lyte assay relative to control
[6] = target: Serine/threonine-protein kinase PAK 2 (Homo sapiens) (UniProt Q13177); test: Inhibition of recombinant human full length GST-tagged PAK2 expressed in baculovirus expression system at 0.1 uM by Z'-Lyte assay relative to control
[7] = target: cAMP-dependent protein kinase catalytic subunit alpha (Homo sapiens) (UniProt P17612); test: Inhibition of recombinant human His-tagged PKA expressed in Escherichia coli at 1 uM by Z'-Lyte assay relative to control
[8] = Half life in ICR mouse at 2 mg/kg, iv administered as single dose by LC-MS/MS analysis; assay type: ADME, organism-based; conditions: in vivo
U-87 MG [9] = test: Antitumor activity against luciferase-fused human U87MG cells orthotopically xenografted in nude mouse assessed as increase in mouse life span at 3.125 mg/kg, po qd for 5 weeks relative to control; assay type: functional, U-87MG ATCC; conditions: 840 h
[10] = Oral bioavailability in ICR mouse at 5 mg/kg administered as single dose by LC-MS/MS analysis; assay type: ADME, organism-based; conditions: in vivo
[11] = target: Phosphatidylinositol 4,5-bisphosphate 3-kinase catalytic subunit gamma isoform (Homo sapiens) (UniProt P48736); test: Inhibition of PI3K gamma (unknown origin) at 1 uM by ADP-Glo assay relative to control
[12] = target: cAMP-dependent protein kinase catalytic subunit alpha (Homo sapiens) (UniProt P17612); test: Inhibition of recombinant human His-tagged PKA expressed in Escherichia coli at 0.1 uM by Z'-Lyte assay relative to control
[13] = target: Serine/threonine-protein kinase PAK 1 (Homo sapiens) (UniProt Q13153); test: Inhibition of recombinant human full length GST-tagged PAK1 expressed in baculovirus expression system at 1 uM by Z'-Lyte assay relative to control
Serine/threonine-protein kinase PAK 1 (Homo sapiens), sequence (Q13153 whole entry): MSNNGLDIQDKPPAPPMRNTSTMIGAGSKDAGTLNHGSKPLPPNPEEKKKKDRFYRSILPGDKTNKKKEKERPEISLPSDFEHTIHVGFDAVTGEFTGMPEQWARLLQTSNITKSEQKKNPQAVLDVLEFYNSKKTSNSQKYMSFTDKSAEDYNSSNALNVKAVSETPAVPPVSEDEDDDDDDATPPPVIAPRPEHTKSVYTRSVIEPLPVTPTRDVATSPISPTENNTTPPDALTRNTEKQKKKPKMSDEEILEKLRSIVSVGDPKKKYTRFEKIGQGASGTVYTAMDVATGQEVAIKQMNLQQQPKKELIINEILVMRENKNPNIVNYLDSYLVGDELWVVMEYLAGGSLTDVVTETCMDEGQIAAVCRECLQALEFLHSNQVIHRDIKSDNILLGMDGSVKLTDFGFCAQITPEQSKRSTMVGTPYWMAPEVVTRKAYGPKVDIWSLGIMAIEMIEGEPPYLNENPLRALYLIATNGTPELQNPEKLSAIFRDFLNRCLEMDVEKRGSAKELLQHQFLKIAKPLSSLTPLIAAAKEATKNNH

[14] = target: Mitogen-activated protein kinase kinase kinase 9 (Homo sapiens) (UniProt P80192); test: Inhibition of recombinant human GST-tagged MLK1 expressed in baculovirus expression system at 0.1 uM by Z'-Lyte assay relative to control
[15] = target: G protein-coupled receptor kinase 4 (Homo sapiens) (UniProt P32298); test: Inhibition of recombinant human full length GST-tagged GRK4 expressed in baculovirus expression system at 1 uM by Z'-Lyte assay relative to control
[16] = target: Serine/threonine-protein kinase PLK1 (Homo sapiens) (UniProt P53350); test: Inhibition of recombinant human full length His-tagged PLK1 expressed in baculovirus expression system at 1 uM by Z'-Lyte assay relative to control
Serine/threonine-protein kinase PLK1 (Homo sapiens), sequence (P53350 whole entry, the tested form may be a part): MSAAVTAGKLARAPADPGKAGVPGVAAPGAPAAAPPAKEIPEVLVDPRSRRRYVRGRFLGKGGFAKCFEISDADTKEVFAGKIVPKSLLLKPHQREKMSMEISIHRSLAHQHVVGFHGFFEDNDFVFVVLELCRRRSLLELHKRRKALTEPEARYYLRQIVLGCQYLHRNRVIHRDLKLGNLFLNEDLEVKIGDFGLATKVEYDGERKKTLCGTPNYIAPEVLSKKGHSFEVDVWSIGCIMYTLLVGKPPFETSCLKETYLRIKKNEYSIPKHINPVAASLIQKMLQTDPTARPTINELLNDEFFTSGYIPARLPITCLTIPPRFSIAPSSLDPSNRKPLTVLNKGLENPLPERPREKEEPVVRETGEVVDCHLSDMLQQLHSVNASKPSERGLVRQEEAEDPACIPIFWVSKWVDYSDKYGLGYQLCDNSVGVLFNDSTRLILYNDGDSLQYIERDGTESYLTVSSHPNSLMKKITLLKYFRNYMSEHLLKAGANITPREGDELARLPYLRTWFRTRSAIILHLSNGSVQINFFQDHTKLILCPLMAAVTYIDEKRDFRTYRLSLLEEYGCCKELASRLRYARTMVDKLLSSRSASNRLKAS

[17] = target: Tyrosine-protein kinase Mer (Homo sapiens) (UniProt Q12866); test: Inhibition of recombinant human GST-tagged MERTK (578 to 872 residues) expressed in baculovirus expression system at 0.1 uM by Z'-Lyte assay relative to control
Mus musculus = test: Toxicity in nude mouse orthotopically xenografted with luciferase-fused human U87MG cells assessed as body weight loss at 3.125 to 25 mg/kg, po qd for 5 weeks; assay type: organism-based; conditions: in vivo, 840 h
[18] = tested on: Proto-oncogene tyrosine-protein kinase receptor Ret (Homo sapiens), P07949 [V804L]; test: Inhibition of recombinant human GST-tagged RET V804L mutant expressed in baculovirus expression system at 0.1 uM by Z'-Lyte assay relative to control
U-87 MG [19] = test: Antitumor activity against luciferase-fused human U87MG cells orthotopically xenografted in nude mouse assessed as tumor growth inhibition at 50 mg/kg, po qd for 4 weeks by bioluminescence imaging relative to control; assay type: functional, U-87MG ATCC; conditions: 672 h, read-out: TGI
[20] = target: Tyrosine-protein kinase Tec (Homo sapiens) (UniProt P42680); test: Inhibition of recombinant human full length His-tagged TEC expressed in baculovirus expression system at 1 uM by TR-FRET assay relative to control
[21] = target: Serine/threonine-protein kinase MRCK beta (Homo sapiens) (UniProt Q9Y5S2); test: Inhibition of recombinant human His-tagged CDC42 BPB expressed in baculovirus expression system at 1 uM by Z'-Lyte assay relative to control
Serine/threonine-protein kinase MRCK beta (Homo sapiens), sequence (Q9Y5S2 whole entry): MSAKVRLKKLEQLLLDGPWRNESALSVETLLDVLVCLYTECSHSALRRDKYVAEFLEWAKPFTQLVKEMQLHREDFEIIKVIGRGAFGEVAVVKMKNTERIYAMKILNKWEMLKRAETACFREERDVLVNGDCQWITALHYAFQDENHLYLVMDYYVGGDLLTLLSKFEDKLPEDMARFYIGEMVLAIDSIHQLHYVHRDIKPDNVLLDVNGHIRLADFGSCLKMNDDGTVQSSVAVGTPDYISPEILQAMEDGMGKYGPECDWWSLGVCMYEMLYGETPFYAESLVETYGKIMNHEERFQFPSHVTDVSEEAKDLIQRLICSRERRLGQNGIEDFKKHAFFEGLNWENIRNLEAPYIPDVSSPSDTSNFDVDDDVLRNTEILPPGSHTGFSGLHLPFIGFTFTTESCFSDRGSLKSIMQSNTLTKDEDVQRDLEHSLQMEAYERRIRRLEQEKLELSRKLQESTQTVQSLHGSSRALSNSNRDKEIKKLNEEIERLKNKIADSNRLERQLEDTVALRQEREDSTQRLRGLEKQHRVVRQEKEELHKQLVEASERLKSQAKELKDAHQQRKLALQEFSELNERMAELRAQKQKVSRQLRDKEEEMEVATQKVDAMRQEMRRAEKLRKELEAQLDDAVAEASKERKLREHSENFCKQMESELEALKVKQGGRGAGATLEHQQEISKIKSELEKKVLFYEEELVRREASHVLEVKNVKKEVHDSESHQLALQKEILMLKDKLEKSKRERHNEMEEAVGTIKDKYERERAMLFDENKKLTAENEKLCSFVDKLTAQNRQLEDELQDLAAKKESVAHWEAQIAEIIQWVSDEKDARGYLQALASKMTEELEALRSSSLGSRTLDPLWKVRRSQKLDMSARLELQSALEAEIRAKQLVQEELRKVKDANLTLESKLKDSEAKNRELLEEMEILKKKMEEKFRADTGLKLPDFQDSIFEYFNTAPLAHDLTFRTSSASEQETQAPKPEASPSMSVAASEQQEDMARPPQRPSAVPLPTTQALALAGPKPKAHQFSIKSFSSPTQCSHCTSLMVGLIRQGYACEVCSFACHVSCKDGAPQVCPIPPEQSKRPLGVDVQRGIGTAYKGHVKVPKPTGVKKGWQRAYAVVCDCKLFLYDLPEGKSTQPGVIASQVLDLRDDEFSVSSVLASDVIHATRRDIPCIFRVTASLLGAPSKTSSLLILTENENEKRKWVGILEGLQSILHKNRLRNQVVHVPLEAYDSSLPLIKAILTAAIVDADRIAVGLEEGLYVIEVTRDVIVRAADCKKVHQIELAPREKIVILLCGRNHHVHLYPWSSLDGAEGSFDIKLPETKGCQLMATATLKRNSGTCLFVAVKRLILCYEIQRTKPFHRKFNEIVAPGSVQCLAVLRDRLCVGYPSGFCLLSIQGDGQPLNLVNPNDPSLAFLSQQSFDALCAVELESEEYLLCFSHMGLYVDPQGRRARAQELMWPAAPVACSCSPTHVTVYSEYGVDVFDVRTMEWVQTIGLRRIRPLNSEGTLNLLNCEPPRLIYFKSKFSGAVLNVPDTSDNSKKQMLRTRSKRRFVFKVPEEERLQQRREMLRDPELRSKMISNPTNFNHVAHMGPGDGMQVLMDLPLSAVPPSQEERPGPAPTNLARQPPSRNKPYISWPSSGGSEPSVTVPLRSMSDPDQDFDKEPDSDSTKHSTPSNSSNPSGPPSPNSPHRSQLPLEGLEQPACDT

[22] = target: Tyrosine-protein kinase JAK1 (Homo sapiens) (UniProt P23458); test: Inhibition of recombinant human GST-tagged JAK1 expressed in baculovirus expression system at 1 uM by TR-FRET assay relative to control
[23] = target: Casein kinase I isoform alpha (Homo sapiens) (UniProt P48729); test: Inhibition of recombinant full length human GST-tagged CK1alpha expressed in baculovirus expression system at 0.1 uM by Z'-Lyte assay relative to control
[24] = target: Serine/threonine-protein kinase TAO2 (Homo sapiens) (UniProt Q9UL54); test: Inhibition of recombinant human GST-tagged TAOK2 expressed in baculovirus expression system at 0.1 uM by Z'-Lyte assay relative to control
Serine/threonine-protein kinase TAO2 (Homo sapiens), sequence (Q9UL54 whole entry): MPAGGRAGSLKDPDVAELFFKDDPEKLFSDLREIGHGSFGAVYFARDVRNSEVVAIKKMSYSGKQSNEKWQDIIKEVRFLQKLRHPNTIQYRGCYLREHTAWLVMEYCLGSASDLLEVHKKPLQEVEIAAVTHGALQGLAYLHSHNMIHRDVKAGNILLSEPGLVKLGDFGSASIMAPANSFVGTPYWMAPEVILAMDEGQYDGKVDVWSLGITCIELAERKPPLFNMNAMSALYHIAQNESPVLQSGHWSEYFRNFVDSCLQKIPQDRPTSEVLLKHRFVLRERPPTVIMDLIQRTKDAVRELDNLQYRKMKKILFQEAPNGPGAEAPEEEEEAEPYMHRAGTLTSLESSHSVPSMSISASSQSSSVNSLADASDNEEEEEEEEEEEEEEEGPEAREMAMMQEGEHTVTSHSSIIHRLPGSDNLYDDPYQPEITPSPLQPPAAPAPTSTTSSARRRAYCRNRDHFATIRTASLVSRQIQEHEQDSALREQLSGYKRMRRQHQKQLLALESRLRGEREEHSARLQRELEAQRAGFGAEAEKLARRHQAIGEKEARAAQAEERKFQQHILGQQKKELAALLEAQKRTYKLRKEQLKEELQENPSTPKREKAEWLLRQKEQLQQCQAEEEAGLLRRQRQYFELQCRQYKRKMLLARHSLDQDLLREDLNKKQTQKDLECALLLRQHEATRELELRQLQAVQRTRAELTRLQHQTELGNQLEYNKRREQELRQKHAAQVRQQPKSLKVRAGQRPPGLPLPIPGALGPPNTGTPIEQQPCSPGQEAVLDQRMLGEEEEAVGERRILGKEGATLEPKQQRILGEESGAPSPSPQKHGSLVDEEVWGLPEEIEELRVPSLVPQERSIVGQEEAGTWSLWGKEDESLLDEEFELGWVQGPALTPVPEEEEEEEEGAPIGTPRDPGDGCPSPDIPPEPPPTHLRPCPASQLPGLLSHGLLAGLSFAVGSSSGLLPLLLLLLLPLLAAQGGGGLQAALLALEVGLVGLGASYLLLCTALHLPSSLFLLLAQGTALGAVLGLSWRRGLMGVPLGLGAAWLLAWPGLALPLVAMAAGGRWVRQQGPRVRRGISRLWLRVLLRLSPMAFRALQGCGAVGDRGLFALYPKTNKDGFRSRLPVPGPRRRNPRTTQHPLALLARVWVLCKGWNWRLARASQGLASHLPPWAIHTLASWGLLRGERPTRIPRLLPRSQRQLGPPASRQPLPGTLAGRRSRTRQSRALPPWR

[25] = target: Tyrosine-protein kinase Lyn (Homo sapiens) (UniProt P07948); test: Inhibition of recombinant human full length GST-tagged Lyn-A expressed in insect cells at 0.1 uM by Z'-Lyte assay relative to control
[26] = target: G protein-coupled receptor kinase 3 (Homo sapiens) (UniProt P35626); test: Inhibition of recombinant human full length GST-tagged GRK3 expressed in baculovirus expression system at 1 uM by Z'-Lyte assay relative to control
[27] = target: Mitogen-activated protein kinase 1 (Homo sapiens) (UniProt P28482); test: Inhibition of recombinant human full length GST-tagged ERK2 expressed in Escherichia coli at 0.1 uM by Z'-Lyte assay relative to control
U-87 MG [28] = test: Antitumor activity against luciferase-fused human U87MG cells orthotopically xenografted in nude mouse assessed as increase in mouse life span at 25 mg/kg, po qd for 5 weeks relative to control; assay type: functional, U-87MG ATCC; conditions: 840 h
[29] = target: Tyrosine-protein kinase SYK (Homo sapiens) (UniProt P43405); test: Inhibition of recombinant human full length GST-tagged SYK expressed in baculovirus expression system at 0.1 uM by Z'-Lyte assay relative to control
[30] = target: Mitogen-activated protein kinase 14 (Homo sapiens) (UniProt Q16539); test: Inhibition of recombinant human full length GST-tagged p38alpha expressed in Escherichia coli at 1 uM by Z'-Lyte assay relative to control
Mitogen-activated protein kinase 14 (Homo sapiens), sequence (Q16539 whole entry): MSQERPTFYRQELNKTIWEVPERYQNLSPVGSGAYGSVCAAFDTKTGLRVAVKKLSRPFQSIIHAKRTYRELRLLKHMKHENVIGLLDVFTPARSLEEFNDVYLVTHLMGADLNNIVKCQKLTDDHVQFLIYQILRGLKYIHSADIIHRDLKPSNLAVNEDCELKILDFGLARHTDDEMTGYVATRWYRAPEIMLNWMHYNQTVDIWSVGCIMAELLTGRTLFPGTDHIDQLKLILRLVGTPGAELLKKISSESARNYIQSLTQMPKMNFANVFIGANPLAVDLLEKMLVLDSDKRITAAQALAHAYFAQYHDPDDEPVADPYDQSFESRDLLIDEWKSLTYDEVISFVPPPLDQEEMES

Tyrosine-protein kinase Lyn (Homo sapiens), sequence (P07948 2-512 limits assumed): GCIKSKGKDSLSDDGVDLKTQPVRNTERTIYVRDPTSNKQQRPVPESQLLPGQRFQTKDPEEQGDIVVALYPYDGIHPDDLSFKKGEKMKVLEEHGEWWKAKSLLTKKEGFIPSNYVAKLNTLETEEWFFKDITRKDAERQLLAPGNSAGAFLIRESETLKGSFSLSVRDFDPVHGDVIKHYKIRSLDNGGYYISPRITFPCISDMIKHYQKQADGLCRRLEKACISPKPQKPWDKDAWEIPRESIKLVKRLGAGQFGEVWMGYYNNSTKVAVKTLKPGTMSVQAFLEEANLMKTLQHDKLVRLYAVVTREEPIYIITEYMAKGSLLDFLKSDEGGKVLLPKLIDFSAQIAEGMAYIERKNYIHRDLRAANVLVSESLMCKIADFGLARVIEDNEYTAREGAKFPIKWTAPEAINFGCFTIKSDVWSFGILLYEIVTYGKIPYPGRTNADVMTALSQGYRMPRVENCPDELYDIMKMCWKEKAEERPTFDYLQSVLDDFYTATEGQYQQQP

CC1=Nc2c(F)cc(-c3nc(Nc4ccc(C5CCN(C)CC5)cn4)ncc3F)cc2C12CCCC2 [CROZBACICLIB]
inhibition [1]: 2% | inhibition [2]: 2% | inhibition [3]: 5% | inhibition [4]: 56% | inhibition [5]: -3% | inhibition [6]: 2% | inhibition [7]: 8% | half-life [8]: 9.1 h | ILS at 3.125 mg/kg (U-87 MG [9]): 28% | bioavailability [10]: 75% | inhibition [11]: 19% | inhibition [12]: 0% | inhibition [13]: 28% | inhibition [14]: 0% | inhibition [15]: 1% | inhibition [16]: 0% | inhibition [17]: -1% | Activity (Mus musculus): Non-Toxic | inhibition [18]: 2% | inhibition in vivo at 50 mg/kg (U-87 MG [19]): 99% | inhibition [20]: 2% | inhibition [21]: 68% | inhibition [22]: 24% | inhibition [23]: -3% | inhibition [24]: 26% | inhibition [25]: 0% | inhibition [26]: -7% | inhibition [27]: 0% | ILS at 25 mg/kg (U-87 MG [28]): 103% | inhibition [29]: 5% | inhibition [30]: -8%
